pIC50: −log10 of the molar value. Like-named read-outs stand apart in the source and are kept apart here. Some results are limits rather than exact numbers.

This passage reports IC50 results from US11691992B2 (Anacor Pharmaceuticals, Inc., priority 2017, dated 2023).

Holding throughout (type): cell-based
Assay [1] relates to TdTomato-modified T. cruzi (CL strain) in Vero cells. The assay can be described thus: In vitro IC50 measurement of T. cruzi amastigote killing using TdTomato-modified T. cruzi (CL strain). The following applies: Trypanosoma cruzi, 72 h, fluorescence, read-out: IC50: I Org. amastigote Growth T. cruzi CL TdTomato, 3 d. How it is done: Example 112. In Vitro IC50 Measurement of T. cruzi Amastigote Killing Using TdTomato-Modified T. cruzi (CL Strain)
The T. cruzi parasites used in this assay were genetically modified to express Td Tomato fluorescent protein. Vero cells (African green monkey kidney epithelial cells) were harvested from continuous cultures using trypsin and added to the inner 60 wells of 96-well Greiner Bio One plates (plate catalog #655090) at 200 ul/well of […]. Cells were allowed to adhere for 1 h before infection with T. cruzi. T. cruzi for infection were harvested from previously-infected Vero cells, washed, pelleted and resuspended at 5×10^6/mL. 50 uL of parasites were added to each well containing Vero cells. Compounds were prepared from 5 mM stock concentrations in DMSO to final concentrations in wells ranging from 5 uM to 5 nM. Wells were provided for negative controls, lacking compounds. Plates were placed into a 37° C. incubator for 20 min, then a “Day 0” reading was taken on a Synergy H4 plate reader to record initial fluorescence levels, at 544 (excitation) and 612 nm (emission). 96-well plates were placed in Tupperware containers with wet paper towels and incubated at 37° C. incubator for 72 h. After 72 h plates were reread (Day 3 reading) and data analyzed using Excel and/or Graphpad software. Day 0 fluorescence was subtracted from Day 3 to remove input parasite fluorescence. Growth curves are generated and 50% and 90% inhibitory concentrations are determined by nonlinear regression analysis.

Assay [2] deals with luciferase-expressing L. major parasites developing intracellularly inside RAW 264.7 macrophages. The assay is described as follows: Leishmania major intracellular amastigote assay in RAW 264.7 macrophages (luciferase). The following applies: RAW264.7, 96 hours, read-out: IC50: I Org. intracellular amastigote Growth L. major, 4 d. An excerpt:
Example 107. Assay for Leishmania major Intracellular Amastigote Assay in RAW 264.7 Macrophages
The intracellular amastigote assay is a microtiter plate drug sensitivity assay that uses the activity of luciferase as a measure of proliferation of luciferase-expressing L. major parasites developing intracellularly inside RAW 264.7 macrophages in the presence of antileishmanial drugs or experimental compounds. (Buckner, F. S., and A. J. Wilson. Am J Prop Med Hyg, 2005, 72(5): 600-605.) As the activity of luciferase and its associated luminescence after addition of the substrate, luciferin, is relative to parasite growth, a test compound that inhibits the growth of the parasite will result in a lower luminescence. The luciferase-expressing L. major parasite used in this assay is genetically modified by adding the luciferase coding region to the pLEXSY-hyg2 vector (Jena Biosciences). The luciferase expression construct was created by digesting the luciferase coding region (1.66 kbp) of pGL3-Basic (Promega) by using two restriction enzymes, NcoI/EagI, followed by electrophoretic separation of the luciferase coding region on a 1% agarose gel. The luciferase coding region was then ligated into pLEXSY-hyg2 vector (Jena Biosciences) which had previously been digested with NcoI/NotI. The vector was linearized with SwaI and subsequently gel purified prior to transfection into L. major parasites. Transfections were carried out by electroporation at 480V, 13Ω, and 500 μF (0.4 mL of 1×10^8 parasites/mL, and 0.1 mL of 10 μg DNA). Selection for transfectants was then carried out using hygromycin B (100 μg/mL). RAW 264.7 macrophages were cultured in DMEM media (ATCC Cat #30-2002) supplemented with heat-inactivated 10% FBS (Invitrogen Cat #10438-034). To begin the assay, macrophages were harvested from culture by removing all spent media, adding in 10 mL fresh media, scraping cells, and counted using Trypan Blue. The cells were resuspended in DMEM/10% HIFBS media at 2.0×10^5 cells/mL, and then dispensed in a volume of 50 μL to yield a final concentration of 10,000 macrophages/well in 384 well tissue-culture treated sterile white plates (Nunc Cat #12-565-343) using a Tecan EVO Freedom robotics system. The plates were then incubated at 37° C. overnight in 5% CO2 atmosphere for 24 hours. After overnight incubation, the media was removed from each well using the Tecan EVO Freedom robot, and L. major promastigotes were added to each well and allowed to invade the RAW macrophages. Promastigotes were cultured in Schneider's medium (Invitrogen Cat #11720-067) supplemented with 20% heat inactivated FBS. Metacyclic stage promastigotes provide the best invasion for this assay, and cultures should be grown to increase the percentage of metacyclic promastigotes for best results. Promastigotes were harvested from culture, counted, suspended at 2×10^6 promastigotes/mL in DMEM/HIFBS media, and 100,000 promastigotes were dispensed per well in a volume of 50 μL. After overnight incubation, the media was removed from each well using the Tecan Freedom EVO robot, and each well was subsequently washed three times with 40 μF of fresh DMEM/HIFBS medium to remove all extracellular promastigotes. After the third wash, 69.2 μF of DMEM/HIFBS medium was added to each well using the Tecan EVO Freedom robot. Drug plates were prepared with the Tecan EVO Freedom using sterile 96 well plates containing twelve duplicate two-fold serial dilutions of each test compound suspended in DMSO. 7.8 μF of diluted test compound was added to the 69.2 μF of media present in each well providing a 10 fold final dilution of compound. The final concentration range tested was 0.5 to 10,000 ng/ml for all assays. The plates were next incubated at 37° C. and 5% CO2 for 96 hours. After 96 hours of incubation, 7.5 μF of a luciferin solution (Caliper Fife Science) diluted to 150 μg/mF was added to each well, and the plates were incubated for 30 minutes at 37° C., in the dark. […]

Assay [3] has as its system IL3000 T. congolense (drug sensitive) strain. The assay is described as follows: In vitro Alamar Blue 72 h drug sensitivity assay for T. congolense. The following applies: Trypanosoma congolense; bloodstream form, 69 h + 3 h resazurin, 34° C.; classes A-C; read-out: IC50: I Org. Growth T. congolense IL-3000, 3 d. As to the method: Example 106. In Vitro Alamar Blue 72 h Drug Sensitivity Assay for T. congolense
Compounds were tested in vitro for chemotherapeutic potency against the IL3000 T. congolense (drug sensitive) strain, using the Alamar Blue assay with several modifications. Test compounds were prepared as 10 mg/mL DMSO stocks for each assay run. Compounds were assayed in at least three separate, independent test runs and an 11-point dilution curve was used to determine the IC50 values. Bloodstream form trypanosomes were supported in HMI media containing 20% bovine serum and were incubated with test compounds for 69 h at 34° C. in a humidified atmosphere containing 5% CO2. Thereafter, 10 μL of Resazurin dye (12.5 mg in 100 mL of phosphate buffered saline, Sigma-Aldrich, Buchs, Switzerland) were added for an additional 3 h. Plates were then read using a fluorescent plate reader (Spectramax, Gemini XS, Bucher Biotec, Basel, Switzerland) using an excitation wavelength of 536 nm and an emission wavelength of 588 nm. Data points were averaged to generate sigmoidal dose-response curves and IC50 values were determined using Softmax Pro 5.2 software.
(Alamar Blue is a resazurin reagent that responds to reducing activity.)

For assay [4], the system named is L. infantum MHOM/MA(BE)/67 amastigotes in primary peritoneal mouse macrophages. The assay is described as follows: Leishmania infantum intracellular amastigote assay in mouse macrophages. As to conditions: Macrophage, 120 h; for pIC50: amastigotes in primary peritoneal mouse macrophages, 5 d, Giemsa staining, read-out: Inhibition of Organism Growth in Leishmania infantum MHOM/MA/BE/67, 5 d. As to the method: Example 111. Leishmania infantum Intracellular Amastigote Assay in Mouse Macrophages
L. infantum MHOM/MA(BE)/67 amastigotes were collected from the spleen of an infected donor hamster and used to infect primary peritoneal mouse macrophages. (Kaiser, M., Maes, L., Tadoori, L. P., Spangenberg, T., Ioset, J.-R. J. Biomol. Screen. 2015 20(5), 634-35.) To determine in vitro antileishmanial activity, 3×10^4 macrophages were seeded in each well of a 96-well plate. Culture medium was RPMI-1640 supplemented with L-glutamine (20 mM), 16.5 mM sodium hydrogen carbonate, and 10% fetal calf serum (FCS). After 2 d of outgrowth, 5×10^5 amastigotes/well were added and incubated for 2 h at 37° C. Prediluted samples to be tested were subsequently added, and the plates were further incubated for 5 d at 37° C. and 5% CO2. Total parasite burdens in the well were microscopically assessed after Giemsa staining and expressed as a percentage of the total burden in the blank controls without compound. In treated wells with high amastigote burdens, an overall estimate of the total burden per well was made without discrimination between the number of infected macrophages and the number of amastigotes per infected cell. In treated wells with low burdens, exact counting was performed. The 50% inhibitory concentrations (IC50s) were then generated for each dose response test using GraphPad Prism (GraphPad Software Inc., San Diego, Calif.) using the nonlinear regression (sigmoidal dose-response/variable slope) equation.

The subject of assay [5] is bloodstream forms of T. b. rhodesiense STIB 900. The assay can be described thus: T. brucei rhodesiense STIB 900 growth inhibition assay. The following applies: Trypanosoma brucei, 72 h; for pIC50: bloodstream forms, Alamar Blue, protocol of Example 110, read-out: IC50: I Org. Growth T. brucei rhodesiense STIB 900, 3 d. An excerpt:
Example 110. T. brucei rhodesiense STIB 900 Growth Inhibition Assay
The parasite strain used in this assay was isolated in 1982 from a human patient in Tanzania and after several mouse passages cloned and adapted to axenic culture conditions, ((a) Baltz, T., D. Baltz, C. Giroud, and J. Crockett. EMBO Journal, 1985, 4:1273-1277. (b) Thuita, J. K., S. M. Karanja, T. Wenzler, R. E. Mdachi, J. M. Ngotho, J. M. Kagira, R. Tidwell, and R. Brun. Acta Tropica 2008, 108:6-10.) Minimum Essential Medium (50 μl) supplemented with 25 mM HEPES, 1 g/l additional glucose, 1% MEM non-essential amino acids (100×), 0.2 mM 2-mercaptoethanol, 1 mM Na-pyruvate and 15% heat inactivated horse serum was added to each well of a 96-well microtiter plate. Serial drug dilutions of seven 3-fold dilution steps covering a range from 90 to 0.123 μg/ml were prepared. Then 10^4 bloodstream forms of T. b. rhodesiense STIB 900 in 50 μl was added to each well and the plate incubated at 37° C. under a 5% CO2 atmosphere for 72 h. 10 μl Alamar Blue (resazurin, 12.5 mg in 100 ml double-distilled water) was then added to each well and incubation continued for a further 2-4 h, (Raz, B., M. Iten, Y. Grether-Buhler, R. Kaminsky, and R. Brun. Acta Trap 1997, 68:139-47.) Then the plates were read with a Spectramax Gemini XS microplate fluorometer (Molecular Devices Cooperation, Sunnyvale, Calif., USA) using an excitation wave length of 536 nm and an emission wave length of 588 nm. Data were analyzed using the microplate reader software Softmax Pro (Molecular Devices Cooperation, Sunnyvale, Calif., USA).

Turning to `Cc1c(C(=O)Nc2ccc3c(c2)B(O)OC3C)nnn1-c1ccccc1` (stereo not shown) [Example 1, N-(1-hydroxy-1,3-dihydrobenzo[c][1,2]oxaborol-6-yl)-5-methyl-1-phenyl-1H-Example 11,2,3-triazole-4-carboxamide], the values for the pIC50 in assay [1] and in assay [2] were greater than 6.22 and no less than 6.00, respectively.

Turning to `Cc1c(C(=O)Nc2ccc3c(c2)B(O)OC3)nnn1C1CCC1` [Example 42, 1-cyclobutyl-N-(1-hydroxy-1,3-dihydrobenzo[c][1,2]oxaborol-6-yl)-5-methyl-1H-1,2,3-triazole-4-carboxamide], the values for the pIC50 in assay [1] and in assay [2] were 6.00 to 6.22 and 5.00 to 5.96, respectively.

On to `CCCc1c(C(=O)Nc2ccc3c(c2)B(O)OC3)nnn1-c1ccccn1` [Example 50, N-(1-hydroxy-1,3-dihydrobenzo[c][1,2]oxaborol-6-yl)-5-propyl-1-(pyridin-2-yl)-1H-1,2,3-triazole-4-carboxamide], for which the pIC50 in assay [3] was 6.52 to 7.00; in assay [1] it was greater than 6.22.

Consider `CC(C)c1c(C(=O)Nc2ccc3c(c2)B(O)OC3)nnn1-c1ccccn1` [Example 51, N-(1-hydroxy-1,3-dihydrobenzo[c][1,2]oxaborol-6-yl)-5-isopropyl-1-(pyridin-2-yl)-1H-1,2,3-triazole-4-carboxamide], for which the pIC50 in assay [3] is 6.52 to 7.00; in assay [1] it was 6.00 to 6.22.

As for `COCCc1c(C(=O)Nc2ccc3c(c2)B(O)OC3)nnn1-c1ccccn1` [Example 52, N-(1-hydroxy-1,3-dihydrobenzo[c][1,2]oxaborol-6-yl)-5-(2-methoxyethyl)-1-(pyridin-2-yl)-1H-1,2,3-triazole-4-carboxamide], the pIC50 was 6.52 to 7.00 in assay [3] and 5.00 to 5.96 in assay [1].

With `Cn1c(C(=O)Nc2ccc3c(c2)B(O)OC3)nnc1-c1ccccn1` [Example 73, N-(1-hydroxy-1,3-dihydrobenzo[c][1,2]oxaborol-6-yl)-4-methyl-5-(pyridine-2-yl)-4H-1,2,4-triazole-3-carboxamide], the pIC50 in assay [4] was 4.70 to 5.52; in assay [5] it was 6.52 to 7.00.

As for `Cc1cccc(-c2nc(C(=O)Nc3ccc4c(c3)B(O)OC4)nn2C)n1` [Example 74, N-(1-hydroxy-1,3-dihydrobenzo[c][1,2]oxaborol-6-yl)-1-methyl-5-(6-methylpyridin-2-yl)-1H-1,2,4-triazole-3-carboxamide], the pIC50 in assay [4] was greater than 5.52; in assay [5], 6.52 to 7.00.

Regarding `Cn1nc(C(=O)Nc2ccc3c(c2)B(O)OC3)nc1-c1cccnc1` [Example 78a, N-(1-hydroxy-1,3-dihydrobenzo[c][1,2]oxaborol-6-yl)-1-methyl-5-(pyridin-3-yl)-1H-1,2,4-triazole-3-carboxamide], the IC50 was in the range of 3 to 19.9 µM in assay [4] (read-out: Inhibition of Organism Growth in Leishmania infantum MHOM/MA/BE/67, 5 d [uM]) and 0.31 to 10 µM in assay [5] (read-out: IC50: I Org. Growth T. brucei rhodesiense STIB 900, 3 d [uM]).
